{
  "source": "paper PMC6433934",
  "about": "“Preclinical Evaluation of Bispecific Adaptor Molecule Controlled Folate Receptor CAR-T Cell Therapy With Special Focus on Pediatric Malignancies” (Frontiers in Oncology, 2019)",
  "test_system": "HOS-FRα tumor-bearing mice",
  "test": "Toxicity and CRS rescue with sodium fluorescein",
  "format": "in vivo",
  "details": "sodium fluorescein i.v. ~95 mg/kg, severe CRS, 35 million total CAR-T cells (93:7 CD4/CD8), plasma 6 h later",
  "description": "Depending on the CAR-T cell dose and how EC17 is administered, tumor-bearing mice receiving FITC-specific CAR-T cells can experience severe CRS and varying degrees of body weight loss ([27], [33], [34]). Therefore, we developed a CRS grading system (0–5 scale) to empirically assess CRS toxicity from animals' gross morphology and social behavior to allow for better timing of CRS rescue. While grades 0 and 5 indicated normal (no CRS) or death (due to severe CRS), respectively, grades 1, 2, and 3–4 were considered mild, light-to-moderate, and severe CRS. In addition, all EC17 doses were intentionally given toward the end of any given day to allow potential CRS symptoms to develop overnight. On the days immediately following each EC17 dose, animals were scored and rescue agents such as sodium fluorescein, folic acid and leucovorin were used to mitigate CRS toxicity ([33]). In this particular instance, a batch of E2-CAR-T cells with a high EGFRt+ CD4/CD8 ratio (~93:7) was given to HOS-FRα tumor-bearing mice at a mixture of ~2.5 million CD8 and ~33 million CD4 on day 0. When EC17 was dosed, respectively, at 500, 100, and 500 nmol/kg on days 3, 10, and 12, low CRS (grades 1–2) was noted on days 4 and 11 but high CRS (grade 3) was noted on day 13. To mitigate the severe CRS toxicity, sodium fluorescein was intravenously administrated at ~96 mg/kg in the morning of day 13 and mouse plasma samples were collected 6 h later for analysis of CRS-associated cytokines.",
  "data": [
    {"molecule": "O=C([O-])c1ccccc1-c1c2ccc(=O)cc-2oc2cc([O-])ccc12.[Na+].[Na+]", "note": "[sodium fluorescein, reference compound]", "values": [
      {"measurement": "CAR-T cell derived human cytokines after CRS rescue", "value": "acted very quickly to reduce CAR-T cell derived human cytokines"}
    ]}
  ]
}
